What was measured:
[1] = target: C-C chemokine receptor type 2 (Homo sapiens, UniProt P41597); assay type: cell membranes, CHO-K1, Membrane; conditions: cho-k1
[2] = target: T1, C-X-C chemokine receptor type 1 (Homo sapiens, UniProt P25024)
T1 sequence (P25024 whole entry): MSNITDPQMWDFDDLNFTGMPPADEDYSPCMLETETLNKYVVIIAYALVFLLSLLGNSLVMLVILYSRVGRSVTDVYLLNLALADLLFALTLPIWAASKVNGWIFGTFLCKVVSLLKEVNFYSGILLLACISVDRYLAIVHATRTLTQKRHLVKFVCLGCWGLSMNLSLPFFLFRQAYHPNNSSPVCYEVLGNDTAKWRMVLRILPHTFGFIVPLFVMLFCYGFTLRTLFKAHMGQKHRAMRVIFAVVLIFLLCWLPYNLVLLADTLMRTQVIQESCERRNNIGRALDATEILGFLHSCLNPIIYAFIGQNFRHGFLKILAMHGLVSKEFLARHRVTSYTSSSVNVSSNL

[3] = target: T2, C-X-C chemokine receptor type 2 (Homo sapiens, UniProt P25025); assay type: cell membranes, Membrane; conditions: cho-k1
T2 sequence (P25025 whole entry): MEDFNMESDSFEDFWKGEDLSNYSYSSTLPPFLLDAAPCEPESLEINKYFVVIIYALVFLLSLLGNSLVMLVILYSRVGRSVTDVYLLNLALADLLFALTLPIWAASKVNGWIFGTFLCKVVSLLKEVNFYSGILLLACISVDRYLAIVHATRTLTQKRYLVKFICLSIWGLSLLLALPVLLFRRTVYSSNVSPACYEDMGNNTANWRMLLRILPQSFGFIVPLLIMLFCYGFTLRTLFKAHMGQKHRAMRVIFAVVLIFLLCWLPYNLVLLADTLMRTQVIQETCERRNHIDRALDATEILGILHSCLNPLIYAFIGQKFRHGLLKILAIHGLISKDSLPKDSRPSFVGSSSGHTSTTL

Histamine H2 receptor = Histamine H2 receptor (Homo sapiens, UniProt P25021); assay type: cell membranes, CHO-K1, Membrane; conditions: cho-k1
[4] = target: T3, Muscarinic acetylcholine receptor M2 (Homo sapiens, UniProt P08172); assay type: cell membranes, CHO-K1, Membrane; conditions: cho-k1
T3 sequence (P08172 whole entry): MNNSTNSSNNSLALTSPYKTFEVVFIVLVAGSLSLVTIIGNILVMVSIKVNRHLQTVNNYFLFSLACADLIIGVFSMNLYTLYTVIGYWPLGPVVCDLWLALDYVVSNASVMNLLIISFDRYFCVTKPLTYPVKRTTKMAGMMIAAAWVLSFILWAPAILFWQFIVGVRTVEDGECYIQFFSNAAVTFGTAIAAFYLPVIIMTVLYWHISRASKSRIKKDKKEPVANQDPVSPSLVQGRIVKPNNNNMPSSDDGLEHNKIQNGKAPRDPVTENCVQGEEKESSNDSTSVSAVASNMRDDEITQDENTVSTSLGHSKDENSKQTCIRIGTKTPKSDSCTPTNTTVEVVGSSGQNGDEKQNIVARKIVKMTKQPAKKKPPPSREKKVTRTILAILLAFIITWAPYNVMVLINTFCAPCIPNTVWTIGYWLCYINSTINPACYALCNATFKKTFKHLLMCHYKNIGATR

[5] = target: T4, 5-hydroxytryptamine receptor 1A (Rattus norvegicus, UniProt P19327); assay type: cell membranes, CHO-K1, Membrane
T4 sequence (P19327 whole entry): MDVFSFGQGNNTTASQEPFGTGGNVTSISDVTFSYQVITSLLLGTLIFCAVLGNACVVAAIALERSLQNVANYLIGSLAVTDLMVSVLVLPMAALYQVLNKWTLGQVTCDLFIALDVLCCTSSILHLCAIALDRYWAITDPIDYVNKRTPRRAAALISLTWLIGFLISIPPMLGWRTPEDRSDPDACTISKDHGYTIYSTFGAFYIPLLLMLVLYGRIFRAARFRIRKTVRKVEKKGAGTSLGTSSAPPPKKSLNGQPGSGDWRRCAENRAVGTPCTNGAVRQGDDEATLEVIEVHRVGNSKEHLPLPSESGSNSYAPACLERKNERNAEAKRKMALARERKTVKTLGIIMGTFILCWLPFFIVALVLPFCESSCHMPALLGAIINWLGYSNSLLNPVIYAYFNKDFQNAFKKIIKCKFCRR

Estrogen receptor beta = Estrogen receptor beta (Homo sapiens, UniProt Q92731); conditions: sf9
Note: in other assays of this panel Not Active means under 50% inhibition at 10 µM.

Histamine H2 receptor, sequence (P25021 whole entry): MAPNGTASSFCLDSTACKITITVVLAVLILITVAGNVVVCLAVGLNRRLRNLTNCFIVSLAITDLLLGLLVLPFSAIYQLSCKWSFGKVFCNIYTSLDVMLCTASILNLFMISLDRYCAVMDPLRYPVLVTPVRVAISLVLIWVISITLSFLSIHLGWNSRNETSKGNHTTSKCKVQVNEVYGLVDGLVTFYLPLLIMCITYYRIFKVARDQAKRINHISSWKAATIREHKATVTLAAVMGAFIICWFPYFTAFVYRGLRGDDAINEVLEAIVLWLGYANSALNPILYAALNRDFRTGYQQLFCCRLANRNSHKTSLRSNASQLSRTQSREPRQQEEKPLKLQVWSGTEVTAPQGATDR
Estrogen receptor beta, sequence (Q92731 whole entry): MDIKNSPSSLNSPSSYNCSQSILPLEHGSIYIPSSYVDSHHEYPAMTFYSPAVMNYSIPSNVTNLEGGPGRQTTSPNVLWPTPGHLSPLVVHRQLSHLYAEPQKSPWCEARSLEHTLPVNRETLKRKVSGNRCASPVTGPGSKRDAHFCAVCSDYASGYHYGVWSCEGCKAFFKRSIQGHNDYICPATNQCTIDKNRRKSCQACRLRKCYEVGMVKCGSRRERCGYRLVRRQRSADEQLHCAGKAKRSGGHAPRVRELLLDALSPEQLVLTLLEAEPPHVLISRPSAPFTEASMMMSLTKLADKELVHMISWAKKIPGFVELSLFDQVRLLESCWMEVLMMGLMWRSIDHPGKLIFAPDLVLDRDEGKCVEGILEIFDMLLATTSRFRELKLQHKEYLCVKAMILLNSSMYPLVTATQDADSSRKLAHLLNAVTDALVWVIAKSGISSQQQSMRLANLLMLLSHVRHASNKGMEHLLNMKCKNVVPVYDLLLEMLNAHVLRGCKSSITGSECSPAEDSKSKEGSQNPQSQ
C-C chemokine receptor type 2, sequence (P41597 whole entry): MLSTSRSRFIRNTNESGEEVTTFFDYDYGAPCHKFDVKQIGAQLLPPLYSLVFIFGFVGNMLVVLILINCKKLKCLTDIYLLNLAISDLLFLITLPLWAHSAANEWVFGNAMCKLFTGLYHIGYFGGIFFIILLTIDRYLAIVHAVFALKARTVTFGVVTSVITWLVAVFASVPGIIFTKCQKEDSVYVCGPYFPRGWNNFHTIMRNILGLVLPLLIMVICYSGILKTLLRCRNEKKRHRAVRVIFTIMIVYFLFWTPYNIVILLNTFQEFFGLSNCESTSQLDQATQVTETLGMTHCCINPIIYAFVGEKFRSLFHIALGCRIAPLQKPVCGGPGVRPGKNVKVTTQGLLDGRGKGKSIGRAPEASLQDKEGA

With Nc1ccc(S(=O)(=O)Nc2ncccn2)cc1 [SULFADIAZINE] as the compound, how does the IC50 [1] read?
The IC50 was “Not Active”.

What about the IC50 [2] of the same compound?
The IC50 was “Not Active”.

And the IC50 [3]?
Its IC50 is “Not Active”.

And the IC50 (Histamine H2 receptor)?
Its IC50 is “Not Active”.

And the IC50 [4]?
The IC50 was “Not Active”.

And the IC50 ([5]; cho-k1)?
Its IC50 is “Not Active”.

And the IC50 (Estrogen receptor beta)?
Its IC50 is “Not Active”.

How did the IC50 [1] turn out when COc1cc(N)nc2[nH]c(-c3ccc(F)cc3)c(-c3ccncc3)c12 was run?
Its IC50 is “Not Active”.

What about the IC50 [2] of the same compound?
The IC50 was “Not Active”.

What about the IC50 [3] of the same compound?
Its IC50 is “Not Active”.

And the IC50 (Histamine H2 receptor)?
Its IC50 is “Not Active”.

What about the IC50 [4] of the same compound?
Its IC50 is “Not Active”.

And the IC50 ([5]; cho-k1)?
Its IC50 is “Not Active”.

And the IC50 (Estrogen receptor beta)?
The IC50 was “Not Active”.

How did the IC50 [1] turn out when CN(CCOc1ccc(CC2SC(=O)NC2=O)cc1)c1ccccn1 (stereo not given) [ROSIGLITAZONE] was run?
Its IC50 is “Not Active”.

What about the IC50 [2] of the same compound?
The IC50 was “Not Active”.

And the IC50 [3]?
Its IC50 is “Not Active”.

What about the IC50 (Histamine H2 receptor) of the same compound?
The IC50 was “Not Active”.

And the IC50 [4]?
The IC50 was “Not Active”.

What about the IC50 ([5]; cho-k1) of the same compound?
The IC50 was “Not Active”.

And the IC50 (Estrogen receptor beta)?
The IC50 was “Not Active”.

How did the IC50 [1] turn out when CNS(=O)(=O)Cc1ccc2[nH]cc(CCN(C)C)c2c1 was run?
The IC50 was “Not Active”.

And the IC50 [2]?
The IC50 was “Not Active”.

What about the IC50 [3] of the same compound?
Its IC50 is “Not Active”.

And the IC50 (Histamine H2 receptor)?
The IC50 was “Not Active”.

What about the IC50 [4] of the same compound?
Its IC50 is “Not Active”.

What about the IC50 ([5]; read-out: IC50) of the same compound?
Its IC50 is 804 nM.

And the Ki ([5]; read-out: Ki)?
Its Ki is 459 nM.

What about the IC50 (Estrogen receptor beta) of the same compound?
Its IC50 is “Not Active”.

With Nc1nc2c(c(=O)[nH]1)N(C=O)C(CNc1ccc(C(=O)N[C@@H](CCC(=O)O)C(=O)O)cc1)CN2 (stereo not given in full) [LEUCOVORIN] as the compound, how does the IC50 [1] read?
The IC50 was “Not Active”.

And the IC50 [2]?
The IC50 was “Not Active”.

What about the IC50 [3] of the same compound?
Its IC50 is “Not Active”.

And the IC50 (Histamine H2 receptor)?
Its IC50 is “Not Active”.

And the IC50 [4]?
The IC50 was “Not Active”.

What about the IC50 ([5]; cho-k1) of the same compound?
The IC50 was “Not Active”.

What about the IC50 (Estrogen receptor beta) of the same compound?
Its IC50 is “Not Active”.

What does the source list for C#CCN(C)[C@H](C)Cc1ccccc1 [SELEGILINE]?
IC50 [1]: Not Active; IC50 [2]: Not Active; IC50 [3]: Not Active; IC50 (Histamine H2 receptor): Not Active; IC50 [4]: Not Active; IC50 ([5]; cho-k1): Not Active; IC50 (Estrogen receptor beta): Not Active

With COc1cc(C(=O)NS(=O)(=O)c2ccccc2C)ccc1Cc1cn(C)c2ccc(NC(=O)OC3CCCC3)cc12 [ZAFIRLUKAST] as the compound, how does the IC50 [1] read?
Its IC50 is “Not Active”.

What about the IC50 [2] of the same compound?
Its IC50 is “Not Active”.

And the IC50 [3]?
Its IC50 is “Not Active”.

What about the IC50 (Histamine H2 receptor) of the same compound?
The IC50 was “Not Active”.

What about the IC50 [4] of the same compound?
Its IC50 is “Not Active”.

And the IC50 ([5]; cho-k1)?
Its IC50 is “Not Active”.

What about the IC50 (Estrogen receptor beta) of the same compound?
The IC50 was “Not Active”.

Which IC50 [1] does the source give for STANNOUS FLUORIDE here?
The IC50 was “Not Active”.

And the Ki [1]?
The Ki was “Not Active”.

And the IC50 [2]?
The IC50 was “Not Active”.

And the Ki [2]?
Its Ki is “Not Active”.

And the IC50 [3]?
The IC50 was “Not Active”.

What about the Ki [3] of the same compound?
The Ki was “Not Active”.

What about the IC50 (Histamine H2 receptor) of the same compound?
Its IC50 is “Not Active”.

And the Ki (Histamine H2 receptor)?
Its Ki is “Not Active”.

And the IC50 [4]?
The IC50 was “Not Active”.

What about the Ki [4] of the same compound?
Its Ki is “Not Active”.

And the IC50 ([5]; cho-k1)?
Its IC50 is “Not Active”.

And the Ki ([5]; cho-k1)?
Its Ki is “Not Active”.

What about the IC50 (Estrogen receptor beta) of the same compound?
The IC50 was “Not Active”.

What about the Ki (Estrogen receptor beta) of the same compound?
The Ki was “Not Active”.

With C[C@]12CC[C@H]3[C@@H](CCC4=CC(=O)CC[C@@]43C)[C@@H]1CC[C@@H]2O [TESTOSTERONE] as the compound, how does the IC50 [1] read?
Its IC50 is “Not Active”.

And the IC50 [2]?
The IC50 was “Not Active”.

And the IC50 [3]?
Its IC50 is “Not Active”.

And the IC50 (Histamine H2 receptor)?
Its IC50 is “Not Active”.

What about the IC50 [4] of the same compound?
Its IC50 is “Not Active”.

What about the IC50 ([5]; cho-k1) of the same compound?
Its IC50 is “Not Active”.

And the IC50 (Estrogen receptor beta)?
The IC50 was “Not Active”.

What does the source list for CN1C2CCCC1CC(NC(=O)c1nn(C)c3ccccc13)C2 (stereo not given) [GRANISETRON]?
IC50 [1]: Not Active; IC50 [2]: Not Active; IC50 [3]: Not Active; IC50 (Histamine H2 receptor): Not Active; IC50 [4]: Not Active; IC50 ([5]; cho-k1): Not Active; IC50 (Estrogen receptor beta): Not Active

For COc1ccc(/C=C/C(=O)Nc2ccccc2C(=O)O)cc1OC, which IC50 [1] is on record?
Its IC50 is “Not Active”.

What about the IC50 [2] of the same compound?
The IC50 was “Not Active”.

What about the IC50 [3] of the same compound?
Its IC50 is “Not Active”.

And the IC50 (Histamine H2 receptor)?
Its IC50 is “Not Active”.

What about the IC50 [4] of the same compound?
Its IC50 is “Not Active”.

What about the IC50 ([5]; cho-k1) of the same compound?
Its IC50 is “Not Active”.

And the IC50 (Estrogen receptor beta)?
Its IC50 is “Not Active”.
